Reference: paper PMC8497791 (Frontiers in Pharmacology, 2021)

Columns and labels:
[1] = parameters: method as in Mok et al., 2017; details: metabolite of osimertinib; ref Mok et al., 2017; cited from earlier work
[2] = target: T1, ABCB1 (Homo sapiens, UniProt P08183); test: Bidirectional transport across ABCB1-MDCK monolayers; type: in vitro ADME; details: for ABCB1 transporter substrate assessment: criterion ER >2, ABCB1-MDCK vs MDCK
T1 construct: expressed in transfected cells; host or cells: MDCK (canine kidney) cells transduced with lentivirus from pLVX-CMV-ABCB1
Description: (§1) To establish an MDCK transgenic cell line that can stably express human ABCB1 and BCRP and to identify whether it is suitable for drug delivery experiments, lentivirus shuttle plasmids pLVX-CMV-ABCB1 and pLVX-CMV-BCRP and their auxiliary packaging plasmids PSPAX2 and PMD2G, were extracted with high purity and free of endotoxin, respectively. 293T cells were transfected with Lipofectamine™ 3000 transfection reagent, and the medium was changed 6 h after transfection. After culturing for 24 and 48 h, the cell supernatants, rich in lentivirus particles, were collected and concentrated by ultracentrifugation. Before lentivirus transfection for 18–24 h, adherent MDCK cells were spread on 24-well plates at a density of 1 × 10^5/well. The number of cells transfected with lentivirus was approximately 2 × 10^5/well. The next day, the original medium was replaced with 2 ml of fresh medium containing 6 μg/ml polybrene, and then an appropriate amount of virus suspension; the plates were incubated at 37°C. After 4 h, 2 ml of fresh medium was added to dilute polybrene. The cells were cultured for another 24 h, and the medium containing virus was replaced with fresh medium. After 3–4 days of transfection, puromycin was added to screen the cell lines stably expressing ABCB1 and BCRP.
(§2) MDCK, ABCB1-MDCK, and BCRP-MDCK cells were inoculated in Tmur75 culture bottles with high-glucose DMEM. The cells were counted using a cell counter, the cell density was adjusted to 2.0 × 10^5 cells/ml, and the cells were inoculated in 12-well transwell plates [1.13 cm^2 insert area, 0.4 µm pore size (Corning Life Sciences, New York, NY, United States)]. Thereafter, 0.5 ml of cell suspension was added to the villous surface of each hole (AP side) and 1.5 ml of blank culture medium was added to the basal surface (BL side). After 24 h of culture in the incubator, the fresh culture medium was changed on both AP and BL sides, and the medium was changed every day for 3–5 days. In this experiment, transmembrane resistance was used to evaluate the compactness and integrity of the cell model. When the transmembrane resistance (TEER) is greater than 300 Ω cm^2, the cell monolayer is considered dense and intact. The higher the TEER value, the tighter the monolayer connection. The TEER of monolayer cells was calculated using the following formula: TEER = (R - Rb) × A; where, R is the resistance of the well inoculated with cells, Rb is the blank well without cell inoculation, and A is the membrane area of the polycarbonate membrane.
(§3) Before the transport experiment, the cell monolayer was washed with blank HBSS solution at 37°C three times, and then placed in a CO2 incubator and balanced with HBSS solution for 30 min at 37°C. The transport of the AP→BL side: 0.5 ml of the test solution was added to the AP side as the supply pool, whereas 1.5 ml of blank HBSS solution was added to the BL side as the receiving pool. Before sampling, 0.1 ml of the sample was collected from the BL side in the centrifuge tube, and after sampling, 0.1 ml of blank HBSS, transport sample, was added to the BL side to precipitate protein with methanol, and used for liquid chromatography-tandem mass spectrometry (LC-MS) detection. The transport of the BL→AP side: 1.5 ml of the test solution was added to the BL side as the supply pool, whereas 0.5 ml of blank HBSS solution was added to the AP side as the receiving pool. First, 0.1 ml of the sample was collected on the AP side in the centrifuge tube, and then 0.1 ml of HBSS was added to the AP side after sampling. A transport sample was added to the AP side to precipitate the protein with methanol and used for LC-MS detection.
(§4) The protein was precipitated with methanol in 0.1 ml of blank HBSS, transport sample, and used for LC-MS detection. Drug absorption was determined by LC-MS/MS.

[3] = target: T2, BCRP (Homo sapiens, UniProt Q9UNQ0); test: Bidirectional transport across BCRP-MDCK monolayers; type: in vitro ADME; details: for BCRP transporter substrate assessment: criterion ER >2, BCRP-MDCK vs MDCK
T2 construct: expressed in transfected cells; host or cells: MDCK (canine kidney) cells transduced with lentivirus from pLVX-CMV-BCRP
T2 sequence (Q9UNQ0 1-655): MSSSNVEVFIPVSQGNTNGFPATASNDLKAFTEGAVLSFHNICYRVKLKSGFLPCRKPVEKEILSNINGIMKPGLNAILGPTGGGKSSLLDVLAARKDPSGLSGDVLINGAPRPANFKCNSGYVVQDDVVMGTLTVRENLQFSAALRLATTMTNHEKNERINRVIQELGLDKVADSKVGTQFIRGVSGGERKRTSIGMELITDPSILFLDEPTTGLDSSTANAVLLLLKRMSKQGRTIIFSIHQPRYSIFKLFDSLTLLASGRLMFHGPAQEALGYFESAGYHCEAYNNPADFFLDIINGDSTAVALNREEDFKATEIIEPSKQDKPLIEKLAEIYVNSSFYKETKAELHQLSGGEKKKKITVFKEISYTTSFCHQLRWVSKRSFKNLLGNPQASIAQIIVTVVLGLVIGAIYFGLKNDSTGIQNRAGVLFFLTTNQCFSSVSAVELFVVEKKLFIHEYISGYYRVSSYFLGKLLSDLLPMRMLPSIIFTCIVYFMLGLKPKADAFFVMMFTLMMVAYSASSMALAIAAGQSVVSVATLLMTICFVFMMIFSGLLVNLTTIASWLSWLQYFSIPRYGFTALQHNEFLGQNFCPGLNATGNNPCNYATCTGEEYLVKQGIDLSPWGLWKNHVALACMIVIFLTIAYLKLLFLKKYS
Description: as §1, §2, §3, §4

[4] = test system: MDCK cell monolayers; test: Bidirectional transport across MDCK monolayers; type: in vitro ADME, canine
Description: as §2, §3, §4

[5] = mouse, in vivo, po, 25 mg/kg
Description: (§5) The blood and brain tissues of mice with brain metastases were sampled at 0.5, 1, 2, 4, 8, and 24 h post dosing.
(§6) Chromatographic column:Thermo Hypersil C18 100 × 2.1 mm, 3 μm; Flow rate: 0.4 ml/min; Water phase: 0.1% formic acid aqueous solution; Organic phase: 0.1% formic acid/acetonitrile; Needle wash: methanol; Column oven temperature: 40°C; Autosampler temperature: 10.0°C; Automatic sampling Injection volume of the detector: 5.00 µl.
(§7) Dilute the 2.00 mg/ml stock solution to obtain standard curve solutions with concentrations of 500, 200, 50, 2, 1, and 0.5 ng/ml.
(§8) Dissolve the serum sample at room temperature, take 50 μl, add 150 μl methanol, vortex for 5 min, place in a centrifuge at 15,000 rpm for 10 min, take the supernatant for analysis. Weigh the tissue sample, add 2 ml of methanol, grind for 5 min, vortex and mix for 5 min, place it in a centrifuge at 15,000 rpm for 10 min, and take the supernatant for analysis.

[6] = test system: PC9-LUC brain metastatic tumor; test: Mouse brain metastasis xenograft (intracranial PC9-LUC); type: in vivo, BALB/c nude mice; details: for growth of intracranial tumors (bioluminescence) / body weight of mice: 10 and 25 mg/kg once daily
Description: The brain metastasis model was established via intracranial injection of tumor cells into 6–8-week-old SPF female BALB/c nude mice. The tumor seeding process, which is an aseptic operation, was carried out on an ultra-clean bench. The tumor cells used in this experiment were PC9-LUC cells, and the concentration of the cell suspension was 1 × 10^8/ml. Pentobarbital sodium at 50 mg/kg body weight was administered via intraperitoneal injection. The top of the mouse skull was cut along the center of the skull from the ears to the eyes. An area of about 1–2 cm of the skull was then wiped repeatedly with a cotton swab to remove the fascia and expose the cranial sutures. Holes were then drilled 1 mm below the coronal suture of the skull and 2–2.5 mm from the sagittal suture while keeping the mouse head level. The cranial drill was inserted vertically and the drill was operated at low speed to avoid brain damage. Each mouse was then placed on the brain stereotaxic device, the tip of the syringe needle was aligned with the hole on the skull, and 3 μl of cell suspension (3 × 10^5 cells) was injected via a needle at a depth of 3 mm from the skull. The needle was maintained for 1–2 min following cell injection and then withdrawn. A cotton swab was used to compress the wound and medical adhesive was used to bond the skin wounds. Mice were then placed on a heating blanket and then returned to the animal room for recovery and ongoing nurture. Bioluminescent (BLI) signals were measured weekly using the IVIS Xenogen Imaging system (FX-PRO, United States) to monitor tumor growth. […] The BLI signal was measured once a week and the body weight of the mice was recorded.

[7] = test system: PC9-LUC spinal cord metastases; test: Mouse spinal cord metastasis model (PC9-LUC); type: in vivo, nude mice; details: for biofluorescence signal of intracranial and spinal cord tumors: vs control
Description: The BLI signal was measured once a week, and the body weight of the mice was recorded.
For the spinal cord metastasis model, PC9-LUC cells were injected into the brain ventricles of nude mice, and the mice were placed in an SPF environment. […] These mice were then randomly divided into five groups (five in each group) to receive various treatments. After 16 days of modeling, bioluminescence imaging was used to assess the growth and metastasis of PC9-LUC cells every week.

[8] = Bidirectional transport across MDCK monolayers; type: in vitro ADME, canine; details: dog, read-out: efflux ratio (ER)
Description: as §2, §3, §4

[9] = test system: EGFR 19del mutant lung adenocarcinoma and brain metastases; test: Clinical case study, EGFR 19del lung adenocarcinoma with brain metastases; type: in vivo, human; details: one patient
Description: Herein, we present details of a clinical case study. In this case, brain metastases were recorded at the beginning of the study, and almonertinib was administered for several weeks to allow magnetic resonance imaging of the brain to observe the progression of the disease. Written informed consent was obtained from the patient. The work has been carried out in accordance with The Code of Ethics of the World Medical Association (Declaration of Helsinki).

[10] = target: EGFR T790M mutant protein (Homo sapiens, UniProt P00533, T790M); test: biochemical
Description: First, according to the standard procedure, a COOH sensor chip was installed on the Open SPR instrument. The buffer was run at the maximum flow rate and exhaust bubbles after reaching the signal baseline. […] The buffer flow rate was then depressed to 20 µl/min and a sample of 200 µl EDC/NHS (1:1) solution was run for 4 min. Then, the injection instrument of the 200 µl ligand was operated for 4 min. Diluted with activation buffer, Once the ligand-chip interaction was completed, the upper sample mouth was rinsed with buffer and emptied by air. Sample 200 µl Blocking (20 µl/min,4 min) solution, buffer (PBS) rinse the sample ring and empty it by air. The baseline was then observed for 5 min to ensure stability. Finally, different concentrations of analyte were injected separately on the surface of the ligand chip (the concentration is detailed in the experimental results), and the analyte was sampled at 20 µl/min. The binding time of the analyte to the ligand was 240 s and the natural dissociation occurred at 480 s. The 200 µl sample flowed through the chip for 240 s at a constant flow rate of 20 µl/min in each cycle.
The combined compounds can be dissociated from the coating surface by acid and alkali. […] Finally, the kinetic parameters of the binding reactions were calculated and analyzed using Trace Drawer software (Ridgeview Instruments AB, Sweden).

[11] = Mouse pharmacokinetic study, plasma and brain by LC-MS
Description: as §5, §6, §7, §8

[12] = test system: EGFR-mutated NSCLC brain metastases; parameters: method as in Liu et al., 2020; details: patients, ref Liu et al., 2020; cited from earlier work
[13] = parameters: method as in Mok et al., 2017; details: AURA3; ref Mok et al., 2017; cited from earlier work
[14] = female, BALB/c nude, mouse, brain, po, 25 mg/kg
[15] = female, BALB/c nude, mouse, plasma, po, 25 mg/kg
[16] = brain metastasis model, 25 mg/kg once daily

T1 sequence (P08183 whole entry): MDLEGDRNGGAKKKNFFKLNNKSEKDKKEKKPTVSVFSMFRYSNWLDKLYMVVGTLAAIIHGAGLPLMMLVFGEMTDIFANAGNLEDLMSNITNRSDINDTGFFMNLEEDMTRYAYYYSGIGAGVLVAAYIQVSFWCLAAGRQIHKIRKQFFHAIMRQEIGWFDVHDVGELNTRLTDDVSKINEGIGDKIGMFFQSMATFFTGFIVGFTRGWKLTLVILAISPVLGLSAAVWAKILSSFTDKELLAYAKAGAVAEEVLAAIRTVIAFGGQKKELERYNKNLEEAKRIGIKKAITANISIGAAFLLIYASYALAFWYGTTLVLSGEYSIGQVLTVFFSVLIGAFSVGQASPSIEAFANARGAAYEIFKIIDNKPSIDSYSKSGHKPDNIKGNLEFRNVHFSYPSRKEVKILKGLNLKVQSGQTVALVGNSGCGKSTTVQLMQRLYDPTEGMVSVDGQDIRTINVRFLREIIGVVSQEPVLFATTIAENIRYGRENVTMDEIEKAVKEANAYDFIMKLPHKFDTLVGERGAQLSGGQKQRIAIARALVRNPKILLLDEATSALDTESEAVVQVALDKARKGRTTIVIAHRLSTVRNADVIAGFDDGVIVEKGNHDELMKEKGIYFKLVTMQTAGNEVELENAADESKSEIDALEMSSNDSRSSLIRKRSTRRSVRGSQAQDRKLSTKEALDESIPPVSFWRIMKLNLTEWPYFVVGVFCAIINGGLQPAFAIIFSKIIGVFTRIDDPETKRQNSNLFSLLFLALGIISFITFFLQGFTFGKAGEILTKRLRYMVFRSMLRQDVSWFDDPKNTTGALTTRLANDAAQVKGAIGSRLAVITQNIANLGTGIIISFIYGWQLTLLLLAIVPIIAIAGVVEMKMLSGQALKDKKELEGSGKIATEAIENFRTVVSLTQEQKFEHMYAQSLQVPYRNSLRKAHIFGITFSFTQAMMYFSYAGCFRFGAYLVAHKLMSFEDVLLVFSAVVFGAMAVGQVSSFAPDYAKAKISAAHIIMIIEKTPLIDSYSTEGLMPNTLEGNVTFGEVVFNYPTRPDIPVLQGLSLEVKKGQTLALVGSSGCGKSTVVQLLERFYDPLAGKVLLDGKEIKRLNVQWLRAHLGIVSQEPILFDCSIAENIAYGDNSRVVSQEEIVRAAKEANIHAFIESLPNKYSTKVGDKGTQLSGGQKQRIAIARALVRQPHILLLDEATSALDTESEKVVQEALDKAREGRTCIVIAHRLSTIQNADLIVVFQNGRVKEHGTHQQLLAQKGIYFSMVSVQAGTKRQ
Chain of EGFR T790M mutant protein (P00533 25-1210 T790M): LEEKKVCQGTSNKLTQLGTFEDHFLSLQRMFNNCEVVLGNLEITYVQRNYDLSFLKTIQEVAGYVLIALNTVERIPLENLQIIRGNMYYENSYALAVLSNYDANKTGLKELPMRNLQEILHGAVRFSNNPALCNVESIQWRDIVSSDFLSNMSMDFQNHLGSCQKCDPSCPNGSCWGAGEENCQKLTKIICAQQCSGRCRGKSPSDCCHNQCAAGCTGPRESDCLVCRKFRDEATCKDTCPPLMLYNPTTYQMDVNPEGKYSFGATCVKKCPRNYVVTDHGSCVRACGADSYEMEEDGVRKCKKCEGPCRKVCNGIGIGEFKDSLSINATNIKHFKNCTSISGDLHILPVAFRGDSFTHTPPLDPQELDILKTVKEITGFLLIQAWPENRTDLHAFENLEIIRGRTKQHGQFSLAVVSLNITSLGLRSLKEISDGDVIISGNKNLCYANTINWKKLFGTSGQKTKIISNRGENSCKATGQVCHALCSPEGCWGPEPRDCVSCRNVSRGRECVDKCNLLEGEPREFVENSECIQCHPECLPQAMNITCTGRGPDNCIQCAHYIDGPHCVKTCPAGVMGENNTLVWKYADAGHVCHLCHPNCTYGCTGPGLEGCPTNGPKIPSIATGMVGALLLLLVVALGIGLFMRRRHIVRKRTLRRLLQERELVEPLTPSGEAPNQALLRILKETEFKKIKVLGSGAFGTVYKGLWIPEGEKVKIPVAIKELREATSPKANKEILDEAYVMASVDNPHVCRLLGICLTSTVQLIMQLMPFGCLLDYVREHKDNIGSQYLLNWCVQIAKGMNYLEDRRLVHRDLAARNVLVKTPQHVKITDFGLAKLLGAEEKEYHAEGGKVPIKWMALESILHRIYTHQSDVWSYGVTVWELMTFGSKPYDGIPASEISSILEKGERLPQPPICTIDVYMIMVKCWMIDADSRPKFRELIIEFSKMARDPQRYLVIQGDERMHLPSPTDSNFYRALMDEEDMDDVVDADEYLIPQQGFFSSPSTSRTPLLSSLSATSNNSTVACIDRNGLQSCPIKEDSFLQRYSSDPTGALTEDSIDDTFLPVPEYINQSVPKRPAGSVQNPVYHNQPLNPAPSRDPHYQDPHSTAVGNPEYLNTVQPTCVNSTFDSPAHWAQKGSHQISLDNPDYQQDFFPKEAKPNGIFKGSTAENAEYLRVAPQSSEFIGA

C=CC(=O)Nc1cc(Nc2nccc(-c3c[nH]c4ccccc34)n2)c(OC)cc1N(C)CCN(C)C [AZ5104]
concentration of active metabolite in the human body [1]: ~10%

C=CC(=O)Nc1cc(Nc2nccc(-c3cn(C4CC4)c4ccccc34)n2)c(OC)cc1N(C)CCNC [HAS-719]
efflux ratio (ER) ([2]; ABCB1-MDCK, 1 μM): 29.83
efflux ratio (ER) ([2]; ABCB1-MDCK, 10 μM): 12.26
efflux ratio (ER) ([2]; ABCB1-MDCK, 20 μM): 5.5
ABCB1 transporter substrate assessment [2]: ABCB1 and BCRP transporter substrates
efflux ratio (ER) ([3]; BCRP-MDCK, 1 μM): 11.59
efflux ratio (ER) ([3]; BCRP-MDCK, 10 μM): 5.07
efflux ratio (ER) ([3]; BCRP-MDCK, 20 μM): 2.49
BCRP transporter substrate assessment [3]: ABCB1 and BCRP transporter substrates
efflux ratio (ER) ([4]; 1 μM): 2.81
efflux ratio (ER) ([4]; 10 μM): 1.61
efflux ratio (ER) ([4]; 20 μM): 1.62
Tissue/plasma AUC ratio [5]: 0.21

C=CC(=O)Nc1cc(Nc2nccc(-c3cn(C4CC4)c4ccccc34)n2)c(OC)cc1N(C)CCN(C)C [almonertinib]
neurological function (sticky dot test, vertical test) ([6]; 25 mg/kg, vs control group): significant improvement in neurological function
growth of intracranial tumors (bioluminescence) [6]: effectively inhibited the growth of intracranial tumors
number of proliferative cells (Ki-67, histological analysis of brain tissue) ([6]; brain metastasis model): significantly decreased
body weight of mice ([6]; brain metastasis model): decreased after administration
overall survival time of mice ([6]; brain metastasis model, 10 and 25 mg/kg, 60 days): longer than that of mice in the osimertinib group
tumor growth / regression ([7]; 5 mg/kg, spinal cord metastatic mice): can inhibit tumor growth but cannot cause tumor regression
biofluorescence signal of intracranial and spinal cord tumors ([7]; high-dose group (25 mg/kg Qd)): significantly reduced
proliferation of tumor cells (H&E and Ki-67 staining of spinal cord) ([7]; high-dose group (25 mg/kg)): significant inhibition in the proliferation of tumor cells
biofluorescence signal of intracranial and spinal cord tumors ([7]; low-dose group (5 mg/kg Qd)): did not change significantly
survival time ([7]; spinal cord metastasis model, vs osimertinib-administered group): longer survival time
ABCB1 transporter substrate assessment [2]: ABCB1 and BCRP transporter substrates
efflux ratio at 1 μM ([2]; human, MDCK-MDR1, ABCB1-MDCK, 1 μM, read-out: efflux ratio (ER)): 5.2
efflux ratio at 10 μM ([2]; human, MDCK-MDR1, ABCB1-MDCK, 10 μM, read-out: efflux ratio (ER)): 2.75
efflux ratio at 20 μM ([2]; human, MDCK-MDR1, ABCB1-MDCK, 20 μM, read-out: efflux ratio (ER)): 1.84
BCRP transporter substrate assessment [3]: ABCB1 and BCRP transporter substrates
efflux ratio at 1 μM ([3]; human, BCRP-MDCK, 1 μM, read-out: efflux ratio (ER)): 4.62
efflux ratio at 10 μM ([3]; human, BCRP-MDCK, 10 μM, read-out: efflux ratio (ER)): 2.51
efflux ratio at 20 μM ([3]; human, BCRP-MDCK, 20 μM, read-out: efflux ratio (ER)): 1.53
efflux ratio at 1 μM ([8]; 1 μM): 1.1
efflux ratio at 10 μM ([8]; 10 μM): 1.42
efflux ratio at 20 μM ([8]; 20 μM): 1.02
intracranial tumor response ([9]; 110 mg po qd first-line, after 8 weeks): partially responded
abnormalities during treatment ([9]; 110 mg po qd): no other abnormalities
Kd [10]: 11.1 µM
detectability in plasma and brain tissue ([11]; 24 h after 25 mg/kg oral): could still be detected
BBB penetration ([11]; PC9-LUC BM xenograft mice, almonertinib 25 mg/kg oral): excellent BBB penetration
tmax ([11]; brain, almonertinib 25 mg/kg oral): 2 h
AUC(0-t) [11, 14]: 30.6 µM·h
Cmax [11, 14]: 5.36 µM
MRT last [11, 14]: 6.19 h
Kp ([11]; female, BALB/c nude, mouse, brain/plasma, po, 25 mg/kg): 1.82
AUC(0-t) [11, 15]: 16.9 µM·h
Cmax [11, 15]: 6.41 µM
MRT last [11, 15]: 5.42 h
tmax ([11]; female, BALB/c nude, mouse, plasma, po, 25 mg/kg, tmax, almonertinib 25 mg/kg oral): 0.5 h

C#Cc1cccc(Nc2ncnc3cc4c(cc23)OCCOCCOCCO4)c1 [icotinib]
median intracranial progression free survival (PFS) [12]: 8.4 months

C=CC(=O)Nc1cc(Nc2nccc(-c3cn(C)c4ccccc34)n2)c(OC)cc1N(C)CCN(C)C [osimertinib]
growth of intracranial tumors (bioluminescence) [6]: effectively inhibited the growth of intracranial tumors
skin of mice [6, 16]: appeared to be keratinized
weight loss [6, 16]: more obvious
body weight of mice ([6]; brain metastasis model): decreased after administration
biofluorescence signal of intracranial and spinal cord tumors ([7]; high-dose group (25 mg/kg Qd)): significantly reduced
biofluorescence signal of intracranial and spinal cord tumors ([7]; low-dose group (5 mg/kg Qd)): did not change significantly
grade 1 and 2 diarrhea, patients affected [13]: 41%
grade 1 and 2 rashes, patients affected [13]: 34%
